Consider 15 compounds from PubChem BioAssay (NCI).

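Step 1: Grow cells in 96-well plates. Step 2: Expose to compound for 48 hours at 5 concentrations. Step 3: Interpolate endpoints linearly; if unreached, use highest concentration. Abbreviation: GI50, concentration required for 50% inhibition of growth. TGI: total growth inhibition.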 Bounds are passed on as bounds.

Experiment in all cases: NCI anticancer screen, dose series, 48 h
Test [1] deals with M14 melanoma.
For test [2], the system named is SK-MEL-5 melanoma.
The subject of test [3] is UACC-257 melanoma.
Test [4] deals with NCI/ADR-RES ovarian.
The test system of test [5] is EKVX NSCLC.
For test [6], the system named is NCI-H460 lung.
In test [7] the test system is UACC-62 melanoma.
The test system of test [8] is NCI-H522 lung.
The test system of test [9] is SR leukemia.
Test [10] has as its system MDA-MB-231 breast.

Regarding `OC1(c2ccc(Cl)c(C(F)(F)F)c2)CCN(CCCC(c2ccc(F)cc2)c2ccc(F)cc2)CC1`, the GI50 in [1] was 0.828 µM; in test [2], 0.797 µM; in test [3], 0.826 µM; in [4], 0.863 µM; in [5] it was 1.47 µM; in [6], 1.23 µM. Also, the GI50 was 0.81 µM in test [7], 0.902 µM in [8], 0.831 µM in test [9] and 0.795 µM in test [10]. Also, the TGI in test [1] is 1.52 µM; in [2], 1.47 µM; in [3] it was 1.51 µM; in [4], 1.77 µM; in [5] it was 6.2 µM; in test [6] it was 9.05 µM. The TGI in test [7] came out at 1.5 µM; in test [8], 1.79 µM; in test [9] it was 2 µM; in test [10] it was 1.52 µM.

For the compound `Nc1nc2c(c3cnccc13)C(c1ccc(Cl)c(Cl)c1)Cc1cnccc1-2` (stereo not given), the GI50 was 0.36 µM in [1]; 0.58 µM in test [2]; 14.8 µM in test [3]; 0.43 µM in test [4]; 0.971 µM in test [5]; 0.428 µM in test [6]. The GI50 in test [7] was 0.352 µM; in test [8], 0.249 µM; in test [9], 0.384 µM; in test [10], 0.937 µM. The TGI in test [1] was 2.16 µM; in test [2] it was 3.83 µM; in test [3], 29.1 µM; in test [4] it was 7.69 µM; in test [5], 17.5 µM; in test [6], 3.99 µM. Moreover, the TGI in test [7] is 2.44 µM; in test [8] it was 0.73 µM; in test [9], > 100 µM; in test [10], 14.8 µM.

As for `CNCc1cccc2c1OCCOCCOCCN(C)S(=O)(=O)c1ccc(cc1)-c1cnc(N)c(n1)C(=O)N2`, the GI50 was 1.11 µM in test [1]; 1.35 µM in [2]; 2.69 µM in [3]; 14.3 µM in test [4]; 2.83 µM in test [5]; 0.868 µM in test [6]. In addition, the GI50 was 1.3 µM in test [7], 1.76 µM in [8], 0.248 µM in [9] and 2.28 µM in [10]. For the same compound, the TGI was 3.4 µM in [1]; 2.91 µM in test [2]; 5.64 µM in [3]; 32.6 µM in [4]; 12.7 µM in test [5]; 2.95 µM in [6]. Further, the TGI in test [7] turned out to be 2.87 µM; in test [8], 4.94 µM; in test [9], 2.97 µM; in [10], 6.44 µM.

Turning to `COc1cc2c(cc1Nc1nc(N3CCc4ccccc43)c3cc[nH]c3n1)N(C(=O)CN(C)C)CC2`, the GI50 is 0.6 µM in test [1]; 4.26 µM in test [2]; 4.25 µM in test [3]; 0.731 µM in [4]; 5.11 µM in test [5]; 1.29 µM in test [6]. Also, the GI50 in test [7] is 4.71 µM; in [8], 3.94 µM; in [9], 0.517 µM; in [10] it was 5.86 µM. The TGI in [1] was 1.51 µM; in test [2], 11 µM; in test [3], 9.3 µM; in test [4] it was 2.81 µM; in [5], 13.9 µM; in test [6], 2.79 µM. Further, the TGI in test [7] amounted to 9.08 µM; in test [8], 11.7 µM; in test [9], 1.28 µM; in test [10], 12.7 µM.

Take `COc1ccc2c(c1)c(-c1nc(-c3c[nH]c4ncccc34)cs1)cn2CCCN1CCOCC1`: the GI50 is 1.77 µM in test [1]; 1.83 µM in test [2]; 2.04 µM in test [3]; 3.02 µM in test [4]; 3.01 µM in test [5]; 2.54 µM in [6]. For the same compound, the GI50 was 1.97 µM in test [7], 2.07 µM in [8], 2.3 µM in test [9] and 1.86 µM in [10]. The TGI in test [1] was found to be 3.58 µM; in test [2], 3.35 µM; in [3], 3.81 µM; in [4], 11.3 µM; in test [5] it was 16.8 µM; in test [6] it was 6.6 µM. Besides, the TGI in test [7] came out at 4.32 µM; in test [8], 6.03 µM; in test [9], 7 µM; in [10], 4.54 µM.

Take `O=C1Oc2ccccc2C(=O)/C1=C1/C=C(c2ccccc2)SS1`: the TGI in test [1], in test [2], in test [3], in [4], in test [5] and in [6] was > 100 µM throughout. The TGI was > 100 µM in [7], > 100 µM in test [8], 61.3 µM in test [9] and > 100 µM in [10].

`Cc1ccc2c(-c3ccnc(Nc4ccc5c(c4)OCCO5)n3)c(-c3ccc(C(F)(F)F)cc3)nn2n1`: the GI50 in [1] is 3.58 µM; in test [2], 2.04 µM; in test [3] it was 4.21 µM; in [4], 5.55 µM; in test [5], 4.72 µM; in [6], 5.66 µM. Further, the GI50 in [7] was 5.84 µM; in test [8], 4.57 µM; in [9], 17 µM; in test [10] it was 1.25 µM. The TGI was 9.43 µM in test [1]; 7.42 µM in test [2]; 13.2 µM in test [3]; > 25 µM in test [4]; > 25 µM in [5]; > 25 µM in test [6]. Moreover, the TGI in [7] was > 25 µM; in test [8], 21.4 µM; in test [9], > 25 µM; in test [10], > 25 µM.

Turning to `N#CC1(c2ccc(NC(=O)c3cccnc3NCc3ccncc3)cc2)CCCC1`, the GI50 in [1] was 16.1 µM; in test [2], 4.96 µM; in test [3], 17.7 µM; in test [4], 12.9 µM; in test [5], 11.8 µM; in [6] it was 14.1 µM. In addition, the GI50 in test [7] is 8.02 µM; in test [8], 7.6 µM; in test [9], 13 µM; in test [10], 11.3 µM. The TGI in [1] was > 67.1 µM; in test [2], 18 µM; in test [3], > 68.9 µM; in test [4], 62.5 µM; in test [5], > 100 µM; in test [6] it was 54.3 µM. In addition, the TGI in test [7] amounted to 23.9 µM; in [8], 35.1 µM; in test [9], 39.5 µM; in test [10], 52.8 µM.

As for `O=c1c2ccccc2sc2c(CO)ccc(NCCN3CCCCC3)c12`, the TGI stood at 3.82 µM in [1]; 3.19 µM in test [2]; 3.76 µM in test [3]; 9.97 µM in test [4]; 16.6 µM in test [5]; 8.37 µM in [6]. Moreover, the TGI stood at 15.6 µM in [7], 3.86 µM in test [8], 7.71 µM in test [9] and 19.4 µM in test [10].

As for `O=C1c2cccc(Oc3ccccc3)c2C(=O)c2cccc(Oc3ccccc3)c21`, the GI50 in [1], in [2], in test [3], in [4], in test [5] and in test [6] was > 100 µM each time. The GI50 in [7] was > 100 µM; in test [8], > 100 µM; in test [9] it was 77.5 µM; in test [10] it was 44.8 µM. Moreover, the TGI in [1], in test [2], in test [3], in test [4], in [5] and in test [6] was > 100 µM in each case. For the same compound, the TGI in test [7], in test [8], in test [9] and in test [10] was > 100 µM each time.

Turning to `COc1ccc2c(c1)C(=O)c1c-2c(Nc2ccccc2OC)nc2ccccc12`, the GI50 in [1], in test [2], in test [3], in test [4], in test [5] and in [6] was > 100 µM each time. In addition, the GI50 in [7], in test [8], in test [9] and in [10] was > 100 µM in each case. In addition, the TGI in test [1], in test [2], in test [3], in test [4], in test [5] and in test [6] was > 100 µM each time. Also, the TGI in [7], in [8], in test [9] and in test [10] was > 100 µM in each case.

For the compound `CNC(=O)c1ncccc1Nc1nc(Nc2cc3c(cc2OC)CCCN3C(=O)CN(C)C)nc2[nH]ccc12`, the GI50 in test [1] was 1.87 µM; in test [2], 0.618 µM; in test [3], 0.395 µM; in [4], 0.724 µM; in test [5], 1.55 µM; in test [6], 0.613 µM. Moreover, the GI50 was 3.07 µM in test [7], 0.638 µM in [8], 0.104 µM in test [9] and 1.58 µM in test [10]. The TGI in test [1] was 5.78 µM; in test [2] it was 3.37 µM; in test [3] it was 4.71 µM; in test [4], 2.74 µM; in [5], 6.52 µM; in test [6], 3.77 µM. In addition, the TGI was 6.45 µM in test [7], 2.84 µM in test [8], 2.96 µM in [9] and 5.3 µM in test [10].

With `CCN(CC)CCCNc1ccc(C)c2sc3ccccc3c(=O)c12`, the GI50 in [1] was 0.193 µM; in [2], 0.187 µM; in test [3], 0.23 µM; in test [4], 1.4 µM; in test [5] it was 2.16 µM; in test [6] it was 0.46 µM. Also, the GI50 was 0.205 µM in test [7], 3.08 µM in [8], 0.268 µM in test [9] and 0.294 µM in test [10]. In addition, the TGI in test [1] is 0.401 µM; in [2], 0.343 µM; in [3] it was 0.54 µM; in test [4], 4.48 µM; in test [5], 7.65 µM; in [6], 1.71 µM. Moreover, the TGI in test [7] came out at 0.42 µM; in test [8], 15.9 µM; in test [9], 0.988 µM; in [10], 0.863 µM.

As to `COc1ccc2c(N)ncc(C#Cc3cc(C(=O)Nc4ccc(CN5CCN(C)CC5)c(C(F)(F)F)c4)cnc3C)c2c1`, the GI50 in test [1] is 0.225 µM; in [2], 1.86 µM; in test [3], 1.78 µM; in test [4] it was 1.69 µM; in test [5], 5.11 µM; in test [6] it was 0.476 µM. The GI50 is 1.3 µM in [7], 0.571 µM in test [8], 0.649 µM in test [9] and 0.501 µM in test [10]. Moreover, the TGI came out at 0.934 µM in [1]; 5.32 µM in test [2]; 9.22 µM in test [3]; 7.42 µM in test [4]; 19 µM in test [5]; 1.03 µM in test [6]. The TGI in [7] was 5.92 µM; in test [8], 1.2 µM; in test [9], 1.97 µM; in test [10], 1.16 µM.

Consider `C[C@]12CC[C@H]3[C@@H](CCC4=CC(=O)CC[C@@]43C)[C@@H]1CC[C@@H]2c1csc(N)n1`, for which the GI50 was 5.16 µM in test [1]; 1.69 µM in test [2]; 2.75 µM in test [3]; 2.54 µM in test [4]; 1.12 µM in test [5]; 3.46 µM in [6]. The GI50 in test [7] is 2.68 µM; in test [8] it was 7.18 µM; in [9] it was 2.12 µM; in test [10], 8.82 µM. Moreover, the TGI in test [1] stood at 21.4 µM; in [2], 5.41 µM; in test [3], 13 µM; in test [4] it was 22.4 µM; in [5] it was 8.39 µM; in test [6], 13.8 µM. For the same compound, the TGI was found to be 17.8 µM in [7], 24.9 µM in test [8], 12.6 µM in test [9] and 28.7 µM in test [10].
